Assays:
[1] = target: T1, RSV pre-fusion F protein of SEQ ID NO: 10 (Human respiratory syncytial virus A, UniProt P03420, D486N/DEL108-136/I379V/M447V/N67I/P102A/S215P); assay type: physicochemical; details: for trimer % after slow freeze with compound vs without: all formulation buffers (AP1, FB12, formulation 1 and 2); for aggregation after slow freeze: formulation 5b (pH 8.3) and 5a (pH 7.0)
T1 construct: made in house
Protocol: The RSV pre-fusion F protein of SEQ ID NO: 10 was diluted to 0.3 mg/ml in phosphate buffer (Formulation 1) and 0.75 ml was filled in glass injection vials with rubber stopper and sealed with aluminum caps. Additionally, protein was diluted in the formulation buffers with inhibitor in a 1:3 trimer:compound ratio. One inhibitor binds one trimer so with a 1:3 ratio there is an excess of inhibitor. […] In 24 hours, samples were cooled down from RT to −70° C. Samples were thawed to RT and analyzed by analytical Size Exclusion Chromatography (SEC) to measure loss of RSV F trimer.
0.75 ml of each formulation was filled in glass injection vials with rubber stopper and sealed with aluminum caps. Additionally, protein was diluted in the formulation buffers and inhibitor was added in a 1:1, 1:3, 1:9, 1:27 and 1:50 trimer: compound ratio. Final compound concentrations were 1.7×10^−6 M, 5.2×10^−6 M, 1.6×10^−5M, 4.6×10^−5, and 8.6×10^−5 M, respectively. Vials were slowly frozen to −70° C. in 24 hours. Samples were subsequently thawed to RT and analyzed by analytical Size Exclusion Chromatography (SEC) to measure loss of RSV F trimer compared the sample that was kept at 4° C.

[2] = target: T2, RSV pre-fusion F (preF) protein of SEQ ID NO: 10 (Human respiratory syncytial virus A, UniProt P03420, D486N/DEL108-136/I379V/M447V/N67I/P102A/S215P); assay type: physicochemical; details: with compound 1:3 trimer:compound in sample and UF/DF buffer; formulation 2 without PS20; two weeks after UF/DF
T2 construct: made in house
Protocol: The UF/DF was performed with and without compound. […] A kDa filter in the UF/DF (Cogent μscale TFF system (Merck Millipore, Burlington, MA)) was used and a diavolume of 350 ml UF/DF buffer was used.
After the UF/DF the hydrodynamic diameters were measured by Dynamic Light Scattering (DLS) UNcle from vendor Unchained Labs (Pleasanton, CA, US) two weeks after the UF/DF.

HIV-1 ConB-SOSIP Env = HIV-1 ConB-SOSIP Env (Human immunodeficiency virus type 1 group M subtype B, UniProt P04578, A336T/A346V/A501C/A612T/D137T/D187N/D632E/D99N/DEL145-146/DEL310-311/DEL356-356/DEL401-405/DUP460-460/E409T/E464T/E509R/E620D/E630Q/F175L/F396S/G167D/G321D/H625N/H643Y/I148K/I181V/I182V/I320G/I360V/I467T/I559P/I580V/INS134N/INS317Y/INS395N/INS508RR/K130N/K135N/K192R/K322I/K362N/K429E/K510R/L518M/M147E/M326I/M535I/N230D/N325D/N624D/N636D/Q621E/R306S/R308H/S128T/S162T/S347K/S387T/S398G/S411N/S440R/S461N/S465T/S640G/S644T/T140N/T188N/T194I/T232K/T290E/T31A/T373M/T605C/T626M/V275E/V318A/V87E); assay: Thermostability of HIV-1 ConB-SOSIP Env by nanoDSF; assay type: physicochemical; details: 50-fold molar excess of inhibitor; Env 0.8 mg/ml; DMSO 1.95% v/v
HIV Env ConB SOSIP = target: T3, HIV Env ConB SOSIP (Human immunodeficiency virus type 1 group M subtype B, UniProt P04578, A336T/A346V/A501C/A612T/D137T/D187N/D632E/D99N/DEL145-146/DEL310-311/DEL356-356/DEL401-405/DUP460-460/E409T/E464T/E509R/E620D/E630Q/F175L/F396S/G167D/G321D/H625N/H643Y/I148K/I181V/I182V/I320G/I360V/I467T/I559P/I580V/INS134N/INS317Y/INS395N/INS508RR/K130N/K135N/K192R/K322I/K362N/K429E/K510R/L518M/M147E/M326I/M535I/N230D/N325D/N624D/N636D/Q621E/R306S/R308H/S128T/S162T/S347K/S387T/S398G/S411N/S440R/S461N/S465T/S640G/S644T/T140N/T188N/T194I/T232K/T290E/T31A/T373M/T605C/T626M/V275E/V318A/V87E); assay: Storage stability of ConB-SOSIP Env, antigenicity by AlphaLISA (bNAbs / non-bNAbs); assay type: binding, HIV-1; details: 1 week at 4° C., 50-fold excess
T3 construct: made in house; host or cells: HEK293F
Protocol: HIV env trimer was incubated in Citrate buffer (20 mM Citrate. 75 mM NaCl 5% Sucrose, 0.03% Tween-80 pH 6.0) at 0.8 mg/ml for 1 week at 4° C. with or without inhibitor. Entry inhibitor XVII was added in a 50-fold excess to the purified Env ConB SOSIP. As the inhibitor was dissolved in DMSO, the control sample with only Env contained the same concentration of DMSO (1.95% v/v) as the Env with the inhibitor. The quality of HIV Env can be evaluated with broadly neutralizing antibodies (bNAbs) that bind the closed, native pre-fusion conformation of Env, versus non-broadly neutralizing antibodies (non-bNAbs) which recognize non natively folded Envs (Rutten et. al., Cell Reports 18). […] Preferential binding to bNAbs was higher and binding to all five tested non-bNAbs, except for 447-52D, was decreased for the composition that contained the inhibitor.

Row | SMILES | trimer % after slow freeze with compound vs without [1] | aggregation after slow freeze [1] | trimer signal lost after slow freeze/thaw (analytical SEC) ([1]; phosphate buffer (Formulation 1), preF 0.3 mg/ml, 1:3 trimer:compound, RT to −70° C. in 24 hours) | hydrodynamic diameter (DLS) after UF/DF [2] [nm] | increase of melting temperature of Env (nanoDSF) (HIV-1 ConB-SOSIP Env) [°C] | binding to bNAbs vs Env without inhibitor (HIV Env ConB SOSIP) | binding to five tested non-bNAbs, except for 447-52D, vs Env without inhibitor (HIV Env ConB SOSIP) | quality of HIV Env by antigenicity (AlphaLISA) vs Env without inhibitor (HIV Env ConB SOSIP; Citrate buffer pH 6.0)
1 | CS(=O)(=O)CCCn1c(Cn2c(=O)n(C3CC3)c3ccncc32)nc2cc(Cl)ccc21 [Compound II, 3-[[5-chloro-1-(3-methylsulfonylpropyl)benzimidazol-2-yl]methyl]-1-cyclopropyl-imidazo[4,5-c]pyridin-2-one] | higher trimer % | no aggregations were observed | 2.4+/−1.9% | – | – | – | – | –
2 | CS(=O)(=O)CCCn1c(Cn2c(=O)n(CC(F)(F)F)c3ccncc32)cc2cc(Cl)ccc21 [Compound IV, 3-[[5-chloro-1-(3-methylsulfonylpropyl)indol-2-yl]methyl]-1-(2,2,2-trifluoroethyl)imidazo[4,5-c]pyridin-2-one] | higher trimer % | no aggregations were observed | – | 8.65 | – | – | – | –
3 | COc1ccnc2[nH]cc(C(=O)C(=O)N3CCN(C(=O)c4ccccc4)C[C@H]3C)c12 [XVII, 1-[(2R)-4-benzoyl-2-methyl-piperazin-1-yl]-2-(4-methoxy-1H-pyrrolo[2,3-b]pyridin-3-yl)ethane-1,2-dione] | – | – | – | – | ~5 | higher | decreased | superior
